Assay results published in ChEMBL document CHEMBL4020829, “Structure-Activity Relationships and Computational Investigations into the Development of Potent and Balanced Dual-Acting Butyrylcholinesterase Inhibitors and Human Cannabinoid Receptor 2 Ligands with Pro-Cognitive in Vivo Profiles” (J Med Chem, 2018).
Active and inactive are the calls of the source. The calls are words filed in the database; no cut-off is given here.

Experiments:
[1] = target: T1, Acetylcholinesterase (Homo sapiens, UniProt P22303); assay: Inhibition of human erythrocyte AChE at 10 uM using ATC iodide as substrate preincubated for 4.5 mins followed by substrate addition measured after 2.5 mins by Ellman's method relative to control
T1 sequence (P22303 whole entry): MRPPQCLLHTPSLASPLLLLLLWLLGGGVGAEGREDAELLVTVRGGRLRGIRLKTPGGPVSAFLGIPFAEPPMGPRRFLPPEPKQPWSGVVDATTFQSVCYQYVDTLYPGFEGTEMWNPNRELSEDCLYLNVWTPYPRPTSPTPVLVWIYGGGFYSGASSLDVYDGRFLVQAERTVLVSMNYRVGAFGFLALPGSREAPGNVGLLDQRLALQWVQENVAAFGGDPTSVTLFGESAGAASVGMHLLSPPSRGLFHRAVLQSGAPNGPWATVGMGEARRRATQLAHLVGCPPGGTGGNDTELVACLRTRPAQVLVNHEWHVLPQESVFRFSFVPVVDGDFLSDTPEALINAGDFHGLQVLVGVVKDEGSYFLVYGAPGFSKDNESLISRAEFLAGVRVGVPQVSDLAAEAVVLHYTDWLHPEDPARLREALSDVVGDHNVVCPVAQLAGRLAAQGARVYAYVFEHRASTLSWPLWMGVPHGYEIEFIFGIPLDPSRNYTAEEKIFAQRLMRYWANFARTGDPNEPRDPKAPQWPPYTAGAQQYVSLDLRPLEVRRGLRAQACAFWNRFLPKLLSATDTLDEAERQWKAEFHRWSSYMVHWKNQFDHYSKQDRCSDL

[2] = target: Acetylcholinesterase (Electrophorus electricus) (UniProt O42275); assay: Inhibition of electric eel AChE at 25 uM using ATC iodide as substrate preincubated for 4.5 mins followed by substrate addition measured after 2.5 mins by Ellman's method relative to control
Chain of Acetylcholinesterase (Electrophorus electricus) (O42275 24-633 limits assumed): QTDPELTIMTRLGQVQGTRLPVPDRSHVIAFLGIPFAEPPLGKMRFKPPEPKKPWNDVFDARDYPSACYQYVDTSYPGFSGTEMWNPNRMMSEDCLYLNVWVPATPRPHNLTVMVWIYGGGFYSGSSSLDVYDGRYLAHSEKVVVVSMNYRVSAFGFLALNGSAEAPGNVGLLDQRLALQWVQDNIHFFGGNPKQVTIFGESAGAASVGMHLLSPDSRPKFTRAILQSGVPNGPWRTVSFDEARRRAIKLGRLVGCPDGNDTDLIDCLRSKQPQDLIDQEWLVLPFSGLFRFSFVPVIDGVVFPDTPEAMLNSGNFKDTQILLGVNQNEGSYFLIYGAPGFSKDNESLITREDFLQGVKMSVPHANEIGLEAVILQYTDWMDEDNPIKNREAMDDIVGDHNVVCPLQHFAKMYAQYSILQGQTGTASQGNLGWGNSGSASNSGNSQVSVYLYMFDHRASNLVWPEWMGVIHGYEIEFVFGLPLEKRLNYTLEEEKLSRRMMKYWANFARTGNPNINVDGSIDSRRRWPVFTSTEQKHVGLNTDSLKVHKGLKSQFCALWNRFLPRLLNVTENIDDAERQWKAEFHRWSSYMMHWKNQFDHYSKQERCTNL

[3] = target: T2, Cannabinoid receptor 1 (Homo sapiens, UniProt P21554); assay: Displacement of [3H]-[…] from human CB1 receptor expressed in CHO cell membranes at 10 uM after 3 hrs by scintillation counting method relative to control
T2 sequence (P21554 whole entry): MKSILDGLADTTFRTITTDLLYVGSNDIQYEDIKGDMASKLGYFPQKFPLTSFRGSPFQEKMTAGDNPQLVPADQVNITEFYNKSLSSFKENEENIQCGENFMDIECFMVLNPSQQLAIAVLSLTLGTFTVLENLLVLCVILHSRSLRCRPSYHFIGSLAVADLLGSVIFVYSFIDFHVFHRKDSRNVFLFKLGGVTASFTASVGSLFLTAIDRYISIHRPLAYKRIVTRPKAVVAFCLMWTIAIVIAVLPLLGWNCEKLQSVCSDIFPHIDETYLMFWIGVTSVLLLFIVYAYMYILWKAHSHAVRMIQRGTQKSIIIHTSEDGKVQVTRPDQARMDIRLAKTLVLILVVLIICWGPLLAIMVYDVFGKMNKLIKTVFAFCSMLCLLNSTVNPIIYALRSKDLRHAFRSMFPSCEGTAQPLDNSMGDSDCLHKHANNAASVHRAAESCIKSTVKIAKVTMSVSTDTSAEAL

[4] = tested on: U-266; assay: Cytotoxicity against human U266 cells assessed as decrease in cell viability after 72 hrs by MTT assay; format: cell-based; conditions: U-266, 72 h
[5] = tested on: Mus musculus; assay: Toxicity in Swiss mouse assessed as body weight gain per day at 0.3 mg/kg, ip administered for 7 days measured during compound dosing; format: organism-based; conditions: in vivo, 168 h
[6] = tested on: Mus musculus; assay: Toxicity in Swiss mouse assessed as body weight gain per day at 1 mg/kg, ip administered for 7 days measured during compound dosing; format: organism-based; conditions: in vivo, 168 h
[7] = tested on: Mus musculus; assay: Toxicity in Swiss mouse assessed as body weight gain per day at 3 mg/kg, ip administered for 7 days measured during compound dosing; format: organism-based; conditions: in vivo, 168 h
[8] = tested on: Mus musculus; assay: Toxicity in Swiss mouse assessed as body weight loss at 0.3 to 3 mg/kg, ip administered for 7 days measured during compound dosing; format: organism-based; conditions: in vivo, 168 h
[9] = tested on: Mus musculus; assay: Toxicity in Swiss mouse assessed as behavioral alteration at 0.3 to 3 mg/kg, ip administered for 7 days measured during compound dosing; format: organism-based; conditions: in vivo, 168 h
[10] = tested on: Mus musculus; assay: Toxicity in Swiss mouse assessed as prostration at 0.3 to 3 mg/kg, ip administered for 7 days measured during compound dosing; format: organism-based; conditions: in vivo, 168 h
[11] = tested on: Mus musculus; assay: Toxicity in Swiss mouse assessed as abdominal pain at 0.3 to 3 mg/kg, ip administered for 7 days measured during compound dosing; format: organism-based; conditions: in vivo, 168 h
[12] = tested on: Mus musculus; assay: Toxicity in Swiss mouse assessed as changes in fur aspects at 0.3 to 3 mg/kg, ip administered for 7 days measured during compound dosing; format: organism-based; conditions: in vivo, 168 h
[13] = tested on: Mus musculus; assay: Pro-cognitive activity in ip dosed Swiss mouse assessed as prevention of amyloid beta (25 to 35)-induced step through latency deficit administered for 7 days measured on day 10 by passive avoidance test; format: functional, organism-based
[14] = tested on: Mus musculus; assay: Pro-cognitive activity in Swiss mouse assessed as prevention of amyloid beta (25 to 35)-induced increase in escape latency at 1 to 3 mg/kg, ip administered for 7 days measured on day 10 by passive avoidance test; format: functional, organism-based
[15] = target: T3, Cholinesterase (Homo sapiens, UniProt P06276); assay: Inhibition of human BChE at 10 uM using BTC iodide as substrate preincubated for 4.5 mins followed by substrate addition measured after 2.5 mins by Ellman's method relative to control
T3 sequence (P06276 whole entry): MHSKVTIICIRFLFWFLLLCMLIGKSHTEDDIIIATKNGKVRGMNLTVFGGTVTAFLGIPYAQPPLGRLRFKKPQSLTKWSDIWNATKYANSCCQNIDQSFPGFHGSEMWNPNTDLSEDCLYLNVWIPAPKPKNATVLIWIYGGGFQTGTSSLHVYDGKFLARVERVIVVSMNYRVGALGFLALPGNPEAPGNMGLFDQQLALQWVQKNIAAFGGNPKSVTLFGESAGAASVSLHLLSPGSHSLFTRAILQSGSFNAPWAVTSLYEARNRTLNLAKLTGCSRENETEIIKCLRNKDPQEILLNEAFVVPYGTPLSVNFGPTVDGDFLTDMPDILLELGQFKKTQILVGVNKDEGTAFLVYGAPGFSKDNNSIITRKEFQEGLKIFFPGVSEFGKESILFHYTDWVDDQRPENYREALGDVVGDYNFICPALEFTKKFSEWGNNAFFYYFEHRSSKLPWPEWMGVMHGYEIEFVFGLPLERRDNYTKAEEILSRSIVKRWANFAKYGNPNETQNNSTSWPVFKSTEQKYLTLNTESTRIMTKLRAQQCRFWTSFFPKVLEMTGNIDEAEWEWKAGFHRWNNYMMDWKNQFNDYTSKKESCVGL

[16] = target: Acetylcholinesterase (Electrophorus electricus) (UniProt O42275); assay: Inhibition of electric eel AChE at 100 uM using ATC iodide as substrate preincubated for 4.5 mins followed by substrate addition measured after 2.5 mins by Ellman's method relative to control
[17] = target: Cholinesterase (Equus caballus, UniProt P81908); assay: Inhibition of equine BChE using BTC iodide as substrate preincubated for 4.5 mins followed by substrate addition measured after 2.5 mins by Ellman's method
Chain of Cholinesterase (Equus caballus, UniProt P81908) (P81908 whole entry): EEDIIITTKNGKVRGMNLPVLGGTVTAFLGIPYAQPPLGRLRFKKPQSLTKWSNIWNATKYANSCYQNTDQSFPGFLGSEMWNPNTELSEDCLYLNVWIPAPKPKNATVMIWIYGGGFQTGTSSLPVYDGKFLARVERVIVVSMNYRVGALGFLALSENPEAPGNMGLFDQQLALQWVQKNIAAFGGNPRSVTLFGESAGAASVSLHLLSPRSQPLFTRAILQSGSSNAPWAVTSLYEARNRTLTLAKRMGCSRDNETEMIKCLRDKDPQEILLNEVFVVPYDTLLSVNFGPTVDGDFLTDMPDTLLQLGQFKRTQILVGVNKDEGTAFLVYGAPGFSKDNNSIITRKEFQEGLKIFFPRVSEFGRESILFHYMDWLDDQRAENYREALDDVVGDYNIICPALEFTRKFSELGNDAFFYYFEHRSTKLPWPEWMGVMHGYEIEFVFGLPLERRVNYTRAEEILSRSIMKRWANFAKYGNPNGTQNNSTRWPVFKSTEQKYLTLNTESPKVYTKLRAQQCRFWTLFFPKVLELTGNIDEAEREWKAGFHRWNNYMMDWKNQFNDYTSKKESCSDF

[18] = target: T4, Cannabinoid receptor 2 (Homo sapiens, UniProt P34972); assay: Agonist activity at CB2 receptor in human U266 cells assessed as decrease in cAMP accumulation at 50 uM after 2 hrs by ELISA; format: functional, cell-based
T4 sequence (P34972 whole entry): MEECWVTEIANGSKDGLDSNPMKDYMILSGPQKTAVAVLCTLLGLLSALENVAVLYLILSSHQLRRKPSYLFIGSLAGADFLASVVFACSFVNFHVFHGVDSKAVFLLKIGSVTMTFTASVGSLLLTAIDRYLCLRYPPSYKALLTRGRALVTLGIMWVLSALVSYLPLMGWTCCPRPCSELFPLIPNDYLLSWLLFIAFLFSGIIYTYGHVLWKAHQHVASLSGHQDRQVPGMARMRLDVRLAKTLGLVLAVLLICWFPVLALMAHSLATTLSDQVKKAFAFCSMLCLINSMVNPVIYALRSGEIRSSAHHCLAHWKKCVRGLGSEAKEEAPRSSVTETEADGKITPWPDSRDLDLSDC

[19] = target: T4, Cannabinoid receptor 2; assay: Agonist activity at CB2 receptor in human U266 cells assessed as decrease in AM630-induced cAMP accumulation at 50 uM after 2 hrs by ELISA; format: functional, cell-based
[20] = target: T4, Cannabinoid receptor 2; assay: Agonist activity at CB2 receptor in human U266 cells assessed as decrease in MIF mRNA expression at 50 uM after 2 hrs by qRT-PCR method; format: cell-based
[21] = target: T4, Cannabinoid receptor 2; assay: Agonist activity at CB2 receptor in human U266 cells assessed as decrease in STAT3 mRNA expression at 50 uM after 2 hrs by qRT-PCR method; format: cell-based
[22] = target: T4, Cannabinoid receptor 2; assay: Agonist activity at CB2 receptor in human U266 cells assessed as decrease in AM630-induced MIF mRNA expression at 50 uM after 2 hrs by qRT-PCR method; format: cell-based
[23] = target: T4, Cannabinoid receptor 2; assay: Agonist activity at CB2 receptor in human U266 cells assessed as decrease in AM630-induced STAT3 mRNA expression at 50 uM after 2 hrs by qRT-PCR method; format: cell-based
[24] = target: T4, Cannabinoid receptor 2; assay: biochemical
Description: Displacement of [3H]-CP55950 from human CB2 receptor expressed in HEK cell membranes after 3 hrs by scintillation counting method

[25] = target: T3, Cholinesterase; assay: Inhibition of human BChE at 25 uM using BTC iodide as substrate preincubated for 4.5 mins followed by substrate addition measured after 2.5 mins by Ellman's method relative to control
[26] = target: Acetylcholinesterase (Electrophorus electricus) (UniProt O42275); assay: Inhibition of electric eel AChE at 10 uM using ATC iodide as substrate preincubated for 4.5 mins followed by substrate addition measured after 2.5 mins by Ellman's method relative to control
[27] = target: T2, Cannabinoid receptor 1; assay: biochemical; format: cell-based
Description: Displacement of [3H]-CP55950 from human CB1 receptor expressed in CHO cell membranes after 3 hrs by scintillation counting method

[28] = target: T3, Cholinesterase
[29] = target: Acetylcholinesterase (Electrophorus electricus, UniProt O42275); assay: Inhibition of electric eel AChE using ATC iodide as substrate preincubated for 4.5 mins followed by substrate addition measured after 2.5 mins by Ellman's method
Chain of Acetylcholinesterase (Electrophorus electricus, UniProt O42275) (O42275 whole entry): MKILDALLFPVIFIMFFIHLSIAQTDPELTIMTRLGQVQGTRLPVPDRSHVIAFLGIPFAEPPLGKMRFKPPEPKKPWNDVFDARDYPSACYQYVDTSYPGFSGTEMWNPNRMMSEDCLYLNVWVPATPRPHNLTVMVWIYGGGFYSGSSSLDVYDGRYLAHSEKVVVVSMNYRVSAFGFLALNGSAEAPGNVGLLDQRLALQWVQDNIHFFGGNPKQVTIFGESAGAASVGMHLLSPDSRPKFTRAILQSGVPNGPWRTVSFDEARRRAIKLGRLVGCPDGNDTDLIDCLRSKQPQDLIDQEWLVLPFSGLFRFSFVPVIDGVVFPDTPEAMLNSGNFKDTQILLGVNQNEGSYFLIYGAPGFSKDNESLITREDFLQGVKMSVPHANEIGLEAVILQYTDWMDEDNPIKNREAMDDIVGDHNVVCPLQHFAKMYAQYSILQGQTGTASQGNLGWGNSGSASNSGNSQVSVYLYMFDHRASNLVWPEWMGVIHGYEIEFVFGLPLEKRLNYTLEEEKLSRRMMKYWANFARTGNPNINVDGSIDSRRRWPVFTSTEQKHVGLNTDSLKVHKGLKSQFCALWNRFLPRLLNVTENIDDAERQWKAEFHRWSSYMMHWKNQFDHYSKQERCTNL

[30] = target: T1, Acetylcholinesterase
[31] = target: T1, Acetylcholinesterase; assay: Inhibition of human erythrocyte AChE at 100 uM using ATC iodide as substrate preincubated for 4.5 mins followed by substrate addition measured after 2.5 mins by Ellman's method relative to control
[32] = tested on: Mus musculus; assay: Toxicity in Swiss mouse assessed as body weight gain per day at 0.3 to 3 mg/kg, ip administered for 7 days measured during compound dosing; format: organism-based; conditions: in vivo, 168 h
[33] = tested on: Mus musculus; assay: Pro-cognitive activity in amyloid beta (25 to 35)-treated Swiss mouse assessed as increase in locomotion by measuring number of arms entered during session at 3 mg/kg, ip administered for 7 days measured on day 8 by Y-maze test; format: functional, organism-based
[34] = target: T4, Cannabinoid receptor 2; conditions: 10 uM
Description: Displacement of [3H]-CP55950 from human CB2 receptor expressed in HEK cell membranes at 10 uM after 3 hrs by scintillation counting method relative to control

[35] = target: T3, Cholinesterase; assay: Inhibition of human BChE at 100 uM using BTC iodide as substrate preincubated for 4.5 mins followed by substrate addition measured after 2.5 mins by Ellman's method relative to control
[36] = target: T3, Cholinesterase; assay: Inhibition of human BChE at 50 uM using BTC iodide as substrate preincubated for 4.5 mins followed by substrate addition measured after 2.5 mins by Ellman's method relative to control
[37] = target: Acetylcholinesterase (Electrophorus electricus) (UniProt O42275); assay: Inhibition of electric eel AChE at 50 uM using ATC iodide as substrate preincubated for 4.5 mins followed by substrate addition measured after 2.5 mins by Ellman's method relative to control
[38] = tested on: Mus musculus; assay: Pro-cognitive activity in Swiss mouse assessed as prevention of amyloid beta (25 to 35)-induced step through latency deficit at 3 mg/kg, ip administered for 7 days measured on day 10 by passive avoidance test; format: functional, organism-based

Row | SMILES | inhibition [1] [%] | inhibition [3] [%] | IC50 [4] [µM] | inhibition [15] [%] | inhibition [16] [%] | IC50 [24] [µM] | Ki [24] [µM] | inhibition [26] [%] | IC50 [28] [µM] | further results
1 | CCOc1ccc(Cc2nc3cc(C(=O)NCCC(C)C)ccc3n2CCC(C)C)cc1 | 11 | 37 | > 40 | – | – | – | – | – | – | inhibition [2]: 3%; Activity [5]: 0.2 g; Activity [6]: 0.1 g; Activity [7]: 0 g; Activity [8]: Non-Toxic; Activity [9]: Non-Toxic; Activity [10]: Non-Toxic; Activity [11]: Non-Toxic; Activity [12]: Non-Toxic; Activity [13]: Dose-dependent effect; Activity [14]: Active
2 | CCN(CC)C(=O)c1ccc2c(c1)nc(Nc1ccc(Oc3ccccc3)cc1)n2CCC(C)C | 3 | 45 | > 40 | 0 | 2 | 0.501 | 0.426 | – | – | IC50 [17]: 3.7 µM; Activity [18]: Active; Activity [19]: Active; Activity [20]: Active; Activity [21]: Active; Activity [22]: Active; Activity [23]: Active
3 | CCN(CC)C(=O)c1ccc2c(c1)nc(Nc1ccc(Oc3ccccc3)cc1)n2CCN1CCCCC1 | – | 37 | – | – | – | 7.94 | 8.9 | – | – | inhibition [25]: 4%; inhibition [2]: 3%
4 | CCOc1ccc(Cc2nc3cc(C(=O)N4CCCCC4)ccc3n2CCC(C)C)cc1 | 2 | – | – | – | – | 0.398 | 0.384 | 8 | 5.7 | IC50 [27]: 15.8 µM; Ki [27]: 17 µM
5 | CCOc1ccc(Cc2nc3cc(C(=O)N(CC)CC)ccc3n2CCCCN2CCCCC2)cc1 | – | 2 | > 40 | – | – | 5.01 | 4.8 | – | 2.7 | IC50 [29]: 20.5 µM; IC50 [30]: 60.1 µM
6 | CCOc1ccc(Cc2nc3cc(NC(=O)c4ccccc4)ccc3n2CCC(C)C)cc1 | – | 36 | – | 25 | – | 3.98 | 4.3 | 2 | – | –
7 | CCOc1ccc(Cc2nc3cc(C(=O)Nc4ccccc4)ccc3n2CCC(C)C)cc1 | 5 | 18 | > 40 | – | – | 15.8 | 14.4 | 2 | 1.2 | –
8 | CCOc1ccc(Cc2nc3cc(C(=O)N(CC)CC)ccc3n2CCC(C)C)cc1 | – | 24 | – | 2 | 28 | – | – | – | – | inhibition [31]: 6%; IC50 [17]: 9.7 µM; Activity [18]: Active; Activity [19]: Active; Activity [20]: Active; Activity [21]: Active; Activity [22]: Active; Activity [23]: Active; Activity [32]: 0.3 g; Activity [14]: Active; Activity [33]: Active
9 | CCOc1ccc(Cc2nc3cc(C(=O)NC45CC6CC(CC(C6)C4)C5)ccc3n2CCC(C)C)cc1 | – | 31 | > 40 | 1 | – | 5.01 | 4.7 | 5 | – | –
10 | CCOc1ccc(Nc2nc3cc(C(=O)N(CC)CC)ccc3n2CCN2CCCCC2)cc1 | 3 | 17 | – | – | 18 | 12.6 | 10.4 | – | 53.4 | –
11 | Cc1c(C(=O)NN2CCCCC2)nn(-c2ccc(Cl)cc2Cl)c1-c1ccc(Cl)cc1 | – | – | – | – | – | – | – | – | – | inhibition [34]: 4%
12 | CCOc1ccc(Cc2nc3cc(N)ccc3n2CCC(C)C)cc1 | – | 27 | – | – | 15 | 20 | 21 | – | – | inhibition [35]: 39%
13 | CCCCCCNC(=O)c1ccc2c(c1)nc(Cc1ccc(OCC)cc1)n2CCC(C)C | 6 | 39 | > 40 | – | – | 2 | 1.9 | 8 | 5.2 | –
14 | CCOc1ccc(CNc2nc3cc(C(=O)N(CC)CC)ccc3n2CCC(C)C)cc1 | – | 21 | – | – | – | 0.398 | 0.353 | – | – | inhibition [36]: 4%; inhibition [37]: 7%
15 | CCOc1ccc(Nc2nc3cc(C(=O)N(CC)CC)ccc3n2CCC(C)C)cc1 | 13 | 13 | > 40 | 3 | 4 | 2 | 1.9 | – | – | IC50 [17]: 0.7 µM; Activity [18]: Active; Activity [19]: Active; Activity [20]: Active; Activity [21]: Active; Activity [22]: Active; Activity [23]: Active; Activity [32]: 0.3 g; Activity [38]: Active; Activity [14]: Active; Activity [33]: Active
16 | CCOc1ccc(Cc2nc3cc(C(=O)N(CC)CC)ccc3n2CCCCCCN2CCCCC2)cc1 | – | 4 | – | – | – | 1.26 | 1 | – | 8.2 | IC50 [29]: 11.9 µM; IC50 [30]: 20 µM
